Reference: ChEMBL document CHEMBL1201862, “PubChem BioAssay data set” (2004)
Calls of active or inactive are those of the source.

How the values were obtained:
Leucine aminopeptidase = biological target: T1, Leucine aminopeptidase (Plasmodium falciparum 3D7, UniProt Q8IL11); assay: P. falciparum M17LAP inhibitors, primary screen, biochemical, fluorogenic H-Leu-NHMec substrate, 1536-well (AID 1619); type: functional
T1 sequence (Q8IL11 whole entry): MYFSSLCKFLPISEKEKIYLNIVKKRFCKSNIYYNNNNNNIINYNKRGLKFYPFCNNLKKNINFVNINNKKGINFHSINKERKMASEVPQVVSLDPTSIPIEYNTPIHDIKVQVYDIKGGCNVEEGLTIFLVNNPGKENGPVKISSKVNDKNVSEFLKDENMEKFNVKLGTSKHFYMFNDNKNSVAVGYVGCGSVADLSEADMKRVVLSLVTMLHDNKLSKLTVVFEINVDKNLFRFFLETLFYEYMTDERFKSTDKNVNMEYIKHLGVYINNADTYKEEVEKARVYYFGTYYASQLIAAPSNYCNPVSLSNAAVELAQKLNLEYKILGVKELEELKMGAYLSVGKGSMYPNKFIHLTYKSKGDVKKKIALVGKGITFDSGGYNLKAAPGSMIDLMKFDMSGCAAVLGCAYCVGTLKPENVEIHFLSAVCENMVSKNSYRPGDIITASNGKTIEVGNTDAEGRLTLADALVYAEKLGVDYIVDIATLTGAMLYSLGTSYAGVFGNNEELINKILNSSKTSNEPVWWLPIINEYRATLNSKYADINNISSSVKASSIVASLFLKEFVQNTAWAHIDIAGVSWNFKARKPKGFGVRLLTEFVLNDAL

[1] = luciferase reporter signal suppression in cells – H4 neuroglioma cells, luminescence, dose response (AID 1990); type: functional, cell-based
[2] = biological target: Luciferin 4-monooxygenase (Photinus pyralis, UniProt P08659); assay: Counter Screen for Luciferase-based Assay Positives. [Related pubchem assays: 620, 618, 411 ]
Luciferin 4-monooxygenase, sequence (P08659 whole entry): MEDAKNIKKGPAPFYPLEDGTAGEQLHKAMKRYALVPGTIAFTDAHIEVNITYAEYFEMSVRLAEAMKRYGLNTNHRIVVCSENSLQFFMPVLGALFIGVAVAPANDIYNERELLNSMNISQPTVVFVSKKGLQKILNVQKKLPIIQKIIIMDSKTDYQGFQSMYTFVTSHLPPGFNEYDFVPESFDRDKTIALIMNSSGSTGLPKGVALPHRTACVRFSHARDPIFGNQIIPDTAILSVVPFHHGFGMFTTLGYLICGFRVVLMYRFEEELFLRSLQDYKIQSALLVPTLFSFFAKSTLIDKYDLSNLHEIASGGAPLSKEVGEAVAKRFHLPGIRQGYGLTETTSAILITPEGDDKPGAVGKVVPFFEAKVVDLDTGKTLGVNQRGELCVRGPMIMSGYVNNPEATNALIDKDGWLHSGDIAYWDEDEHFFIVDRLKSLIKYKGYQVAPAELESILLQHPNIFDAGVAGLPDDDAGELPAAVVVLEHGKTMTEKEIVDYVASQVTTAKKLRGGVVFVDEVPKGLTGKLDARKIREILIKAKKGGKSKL

[3] = biological target: Glyceraldehyde-3-phosphate dehydrogenase (Homo sapiens, UniProt P04406)
Glyceraldehyde-3-phosphate dehydrogenase, sequence (P04406 whole entry): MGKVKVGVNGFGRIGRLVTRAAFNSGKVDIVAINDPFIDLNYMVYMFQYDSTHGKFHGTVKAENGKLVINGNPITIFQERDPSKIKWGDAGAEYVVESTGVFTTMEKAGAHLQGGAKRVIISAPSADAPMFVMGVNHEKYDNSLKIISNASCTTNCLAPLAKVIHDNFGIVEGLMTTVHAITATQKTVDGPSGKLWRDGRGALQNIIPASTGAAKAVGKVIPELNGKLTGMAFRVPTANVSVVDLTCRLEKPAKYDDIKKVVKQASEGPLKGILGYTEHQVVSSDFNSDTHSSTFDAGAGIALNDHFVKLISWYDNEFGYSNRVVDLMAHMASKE

[4] = Luminescence Cell-Based Dose Response HTS to Identify Inhibitors of 5'UTR Stem-Loop Driven Prion Protein mRNA Translation in H4 Neuroglioblastoma Cells. [Related pubchem assays: 1827 (Project Summary), 1813 (Primary HTS)]; type: functional
[5] = biological target: T2, Heat shock factor protein 1 (Mus musculus, UniProt P38532); assay: decrease of HSF1-responsive luciferase luminescence – cell-based, NIH3T3, dose retest, confirmation (AID 2382); type: functional;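 also: NIH3T3 fibroblasts with HSF1-driven luciferase reporter stressed by proteasome inhibitor MG132; luminescence from HSF1-driven luciferase expression after 8 hours of MG132 stress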
T2 sequence (P38532 whole entry): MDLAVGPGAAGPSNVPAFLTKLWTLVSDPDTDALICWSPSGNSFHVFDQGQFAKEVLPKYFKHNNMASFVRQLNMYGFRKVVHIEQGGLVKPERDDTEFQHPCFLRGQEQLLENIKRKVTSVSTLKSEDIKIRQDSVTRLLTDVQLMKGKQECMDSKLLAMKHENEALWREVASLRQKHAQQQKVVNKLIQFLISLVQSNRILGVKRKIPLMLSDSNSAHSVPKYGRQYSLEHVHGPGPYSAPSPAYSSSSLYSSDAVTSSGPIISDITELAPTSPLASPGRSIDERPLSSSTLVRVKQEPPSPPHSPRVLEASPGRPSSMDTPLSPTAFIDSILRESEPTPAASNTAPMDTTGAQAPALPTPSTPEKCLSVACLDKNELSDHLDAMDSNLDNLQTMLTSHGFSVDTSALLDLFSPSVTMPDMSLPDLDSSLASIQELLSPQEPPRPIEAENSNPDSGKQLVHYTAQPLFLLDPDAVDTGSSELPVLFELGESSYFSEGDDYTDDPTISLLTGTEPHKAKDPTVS

[6] = alpha-synuclein stem-loop luciferase translation blockers – H4 neuroglioma cells, luminescence, confirmation (AID 1988); type: functional, cell-based
[7] = Luminescence-based counterscreen assay for KLF5 inhibitors: dose response cell-based high throughput screening assay to identify cytotoxic compounds using the IEC-6 intestinal epithelial cell line. [Related pubchem assays: 1700 (Primary screen.), 1834 (Confirmation screen.), 1858 (Summary AID.), 1905 (Counterscreen.)]; type: functional
HT-1080 = assay: HT1080 cell viability loss – fluorescence readout (AID 620); type: functional, cell-based; details: Homo sapiens
[8] = biological target: Heat shock protein HSP 90-alpha (Homo sapiens, UniProt P07900); assay: Luminescence-based dose response biochemical high throughput screening assay for inhibitors of the Heat Shock Protein 90 (HSP90). [Related pubchem assays: 1831 (Summary AID.), 1846 (Confirmation screen.), 1789 (Primary screen.)]
Jurkat = assay: blockers of NF-kB activation in T cells – Jurkat, luciferase reporter, luminescence, B- and T-cell, dose response (AID 489004); type: functional, cell-based; details: Homo sapiens;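 also: NF-kB luciferase reporter Jurkat cells stimulated with PMA plus ionomycin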
[9] = HEK-293T viability loss, compound-treated – cell-based, uHTS hits, cytotoxicity control for B/T-cell NF-kB inhibitor project, dose response (AID 489019); type: functional;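 also: IC50 reflects cytotoxicity as loss of cell viability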
[10] = biological target: T3, Microphthalmia-associated transcription factor (Homo sapiens, UniProt O75030); assay: reducers of TRPM1 reporter luminescence, concentration series – cell-based, SK-MEL-5, cherry-picked, set 3, MITF inhibitor project, dose response (AID 493073); type: functional;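 also: SK-MEL-5 melanoma cells with luciferase driven by the MITF target TRPM1 promoter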
T3 sequence (O75030 whole entry): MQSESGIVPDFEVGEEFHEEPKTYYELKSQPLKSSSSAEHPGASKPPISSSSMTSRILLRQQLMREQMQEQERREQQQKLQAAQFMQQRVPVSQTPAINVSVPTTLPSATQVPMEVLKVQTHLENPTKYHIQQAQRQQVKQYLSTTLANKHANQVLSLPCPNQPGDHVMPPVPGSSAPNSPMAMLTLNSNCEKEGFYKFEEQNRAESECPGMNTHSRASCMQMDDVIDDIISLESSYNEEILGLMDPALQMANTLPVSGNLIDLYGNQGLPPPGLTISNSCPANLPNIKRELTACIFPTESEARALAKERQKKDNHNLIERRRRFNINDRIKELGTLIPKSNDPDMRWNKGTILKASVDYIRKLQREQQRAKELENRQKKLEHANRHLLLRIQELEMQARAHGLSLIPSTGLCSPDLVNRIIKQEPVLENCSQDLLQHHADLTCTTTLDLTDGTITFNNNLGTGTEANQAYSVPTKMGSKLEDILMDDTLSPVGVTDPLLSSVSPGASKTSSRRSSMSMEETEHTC

[11] = biological target: T4, RNA-binding protein pos-1 (Caenorhabditis elegans, UniProt G5EF15); assay: disruptors of C. elegans POS-1 RNA interaction – biochemical, fluorescence polarization, dose response (AID 1964);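 also: purified POS-1 fused to maltose binding protein made in E. coli; potency of compounds blocking POS-1 binding to fluorescent RNA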
T4 sequence (G5EF15 whole entry): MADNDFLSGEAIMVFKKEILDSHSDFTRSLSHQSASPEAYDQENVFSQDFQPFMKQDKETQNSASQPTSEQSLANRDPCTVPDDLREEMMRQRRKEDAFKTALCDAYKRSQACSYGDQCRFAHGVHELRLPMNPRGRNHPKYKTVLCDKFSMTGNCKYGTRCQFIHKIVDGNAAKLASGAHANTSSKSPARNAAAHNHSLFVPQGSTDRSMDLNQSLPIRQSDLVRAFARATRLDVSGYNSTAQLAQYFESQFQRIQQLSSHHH

[12] = Counterscreen for IDE inhibitors: Luminescence-based cell-based high throughput dose response assay to identify compounds that are cytotoxic to HEK cells. [Related pubchem assays: 434962 (Primary screen (IDE inhibitors in singlicate)), 449730 (Counterscreen (Cytotoxicity in triplicate)), 435028 (Confirmation (IDE inhibitors in triplicate)) …; type: functional; details: HEK293
Insulin-degrading enzyme = biological target: T5, Insulin-degrading enzyme (Homo sapiens, UniProt P14735); assay: Dose Response: Fluorescence polarization-based cell-based high throughput dose response assay for inhibitors of insulin-degrading enzyme (IDE). [Related pubchem assays: 434962 (Primary screen (IDE inhibitors in singlicate)), 449730 (Counterscreen (Cytotoxicity in triplicate)), 435028 (Confirmation (IDE inhibitors in triplicate)), 434984 (Summary …; type: functional
T5 sequence (P14735 whole entry): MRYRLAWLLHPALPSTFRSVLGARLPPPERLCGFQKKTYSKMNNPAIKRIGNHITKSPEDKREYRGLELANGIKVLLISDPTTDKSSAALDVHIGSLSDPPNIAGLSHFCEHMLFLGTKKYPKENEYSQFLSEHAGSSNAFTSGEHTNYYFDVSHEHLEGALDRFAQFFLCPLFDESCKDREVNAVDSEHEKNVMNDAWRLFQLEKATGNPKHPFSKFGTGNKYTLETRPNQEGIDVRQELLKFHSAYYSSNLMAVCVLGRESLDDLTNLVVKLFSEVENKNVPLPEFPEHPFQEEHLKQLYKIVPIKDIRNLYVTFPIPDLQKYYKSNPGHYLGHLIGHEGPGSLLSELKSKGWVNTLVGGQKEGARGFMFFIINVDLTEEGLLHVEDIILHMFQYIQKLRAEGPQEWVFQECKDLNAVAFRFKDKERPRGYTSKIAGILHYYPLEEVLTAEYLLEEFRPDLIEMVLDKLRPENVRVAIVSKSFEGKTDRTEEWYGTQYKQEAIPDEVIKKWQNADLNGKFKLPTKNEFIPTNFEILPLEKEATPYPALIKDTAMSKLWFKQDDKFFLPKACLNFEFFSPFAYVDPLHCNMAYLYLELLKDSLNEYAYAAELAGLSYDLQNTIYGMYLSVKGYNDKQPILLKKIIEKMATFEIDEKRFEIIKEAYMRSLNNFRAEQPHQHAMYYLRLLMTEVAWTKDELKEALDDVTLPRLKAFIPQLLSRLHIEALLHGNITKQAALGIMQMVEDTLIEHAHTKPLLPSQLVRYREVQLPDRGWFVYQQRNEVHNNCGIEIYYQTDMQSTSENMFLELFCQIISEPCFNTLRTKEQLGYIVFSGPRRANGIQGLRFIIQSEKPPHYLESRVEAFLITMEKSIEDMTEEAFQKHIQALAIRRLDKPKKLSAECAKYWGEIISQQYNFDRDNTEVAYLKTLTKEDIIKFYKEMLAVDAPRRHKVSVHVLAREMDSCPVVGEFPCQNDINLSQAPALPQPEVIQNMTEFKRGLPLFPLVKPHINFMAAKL

[13] = mitochondrial function rescue without frataxin homolog – Friedreich's ataxia, plus single-dose screen, dose response (AID 1465); type: functional;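 also: yeast depleted of Yfh1p frataxin homolog grown on glycerol needing respiration; WST-1 tetrazolium dye reduction as measure of cellular dehydrogenase metabolic activity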
HEK293 = assay: cells; type: functional, cell-based; details: Homo sapiens
[14] = biological target: T6, Nuclear receptor subfamily 0 group B member 1 (Homo sapiens, UniProt P51843); assay: Luminescence-based cell-based high throughput dose response assay for inhibitors of the orphan nuclear receptor subfamily 0, group B, member 1 (DAX1; NR0B1). [Related pubchem assays (depositor defined):AID504766, AID504790]; type: functional
T6 sequence (P51843 whole entry): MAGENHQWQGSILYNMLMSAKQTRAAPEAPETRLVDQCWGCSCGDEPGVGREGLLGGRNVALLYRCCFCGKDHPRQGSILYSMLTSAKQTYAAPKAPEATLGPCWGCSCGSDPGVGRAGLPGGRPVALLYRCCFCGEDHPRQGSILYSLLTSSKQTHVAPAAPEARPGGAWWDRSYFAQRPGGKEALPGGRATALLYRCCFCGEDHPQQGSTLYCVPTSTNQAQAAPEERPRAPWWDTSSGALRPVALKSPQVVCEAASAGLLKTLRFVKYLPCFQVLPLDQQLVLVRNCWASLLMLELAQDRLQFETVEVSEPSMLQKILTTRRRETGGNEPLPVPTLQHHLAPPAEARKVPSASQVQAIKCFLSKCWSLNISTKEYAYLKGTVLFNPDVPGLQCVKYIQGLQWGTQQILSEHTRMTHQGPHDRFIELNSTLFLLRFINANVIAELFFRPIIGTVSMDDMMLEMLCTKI

| Compound | IC50 (Leucine aminopeptidase) | EC50 [1] | EC50 [2] | IC50 [3] | EC50 [4] | EC50 [5] | EC50 [6] | IC50 [7] | EC50 (HT-1080) | IC50 [8] | IC50 (Jurkat) | IC50 [9] | AC50 [10] | EC50 [11] | IC50 [12] | IC50 (Insulin-degrading enzyme) | EC50 [13] | IC50 (HEK293) | IC50 [14] |
| --- | --- | --- | --- | --- | --- | --- | --- | --- | --- | --- | --- | --- | --- | --- | --- | --- | --- | --- | --- |
| O=C(O)CSCC(=O)Nc1ccc(C2CCCCC2)cc1 | 12.6 µM (active) | 0.101 µM (active) | 3.61 µM (active) | > 100 µM (not active) | 0.395 µM (active) | 0.415 µM (active) | 2.2 µM (active) | > 39.8 µM (not active) | > 50 µM (not active) | > 60 µM (not active) | 0.26 µM (active) | > 80 µM (inactive) | 2.12 µM (active) |  |  |  |  |  |  |
| CCN(CC)c1ccc(/C=C2\C(=O)NC(=S)N(C)C2=O)o1 |  |  |  |  |  |  |  |  |  |  |  |  |  | > 300 µM (inconclusive) | > 55.7 µM (not active) | 14 µM (not active) | > 100 µM (active) | > 67.6 µM (inactive) | > 67.6 µM (inactive) |
